From patent US9359311B2, “Substituted aromatic oligomers” (NEUROSCIOS GMBH, priority 2011, dated 2016)
Values joined by “and” are separate entries in the source; they are usually repeats but may differ in a detail not shown here. Equal entries are not always repeated.

Biological target: T1, biotinylated Aβ1-42 (Homo sapiens, UniProt P05067)
T1 construct: To assure monomerisation of biotinylated Aβ1-42 (Anaspec #23523-0.5) the peptide was thoroughly monomerised; purchased Anaspec 23523-0.5
Experiment: Inhibition of Abeta oligomerisation (biotinylated Aβ1-42, neutravidin plate, streptavidin-HRP)
Format: biochemical
Settings: inhibition of Aβ1-42 aggregation, approximately 12 nM Aβ1-42, PBS pH 7.4, 2% DMSO, 30 min RT

T1 sequence (P05067 672-713 limits assumed): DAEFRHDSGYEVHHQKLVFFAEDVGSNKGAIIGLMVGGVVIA

IC50	SMILES
1.58 µM	O=C(O)Cc1ccsc1-c1ccc(-c2cc(CC(=O)O)c(-c3ccc(-c4sc(-c5ccc(-c6sccc6CC(=O)O)s5)cc4CC(=O)O)s3)s2)s1 [Example 84, 2-(2-{5-[3-(Carboxymethyl)-5-{5-[3-(carboxymethyl)thiophen-2-yl]thiophen-2-yl}thiophen-2-yl]thiophen-2-yl}-5-{5-[3-(carboxymethyl)thiophen-2-yl]thiophen-2-yl}thiophen-3-yl)acetic acid]
0.251 µM	NCCc1ccsc1-c1ccc(-c2sc(-c3ccc(-c4cc(CCN)c(-c5ccc(-c6sccc6CCN)s5)s4)s3)cc2CCN)s1 [Example 42, 2-(2-{5-[3-(2-Aminoethyl)-5-{5-[4-(2-aminoethyl)-5-{5-[3-(2-aminoethyl)thiophen-2-yl]thiophen-2-yl}thiophen-2-yl]thiophen-2-yl}thiophen-2-yl]thiophen-2-yl}thiophen-3-yl)ethan-1-amine]
20 µM	C#Cc1cc(CC(=O)O)c(-c2ccc(-c3sc(C#C)cc3CC(=O)O)s2)s1 [Example 86, 2-(2-{5-[3-(Carboxymethyl)-5-ethynylthiophen-2-yl]thiophen-2-yl}-5-ethynylthiophen-3-yl)acetic acid]
5.01 µM	O=C(O)c1cccc(-c2cc(CCO)c(-c3ccc(-c4sc(-c5cccc(C(=O)O)c5)cc4CCO)s3)s2)c1 [Example 74, 3-(5-{5-[5-(3-Carboxyphenyl)-3-(2-hydroxyethyl)thiophen-2-yl]thiophen-2-yl}-4-(2-hydroxyethyl)thiophen-2-yl)benzoic acid]
15.8 µM	NCCc1ccsc1-c1ccc(-c2sccc2CCN)s1 [Example 8, 2-(2-{5-[3-(2-Aminoethyl)thiophen-2-yl]thiophen-2-yl}thiophen-3-yl)ethan-1-amine]

Second part, the molecule before the results:

SMILES	IC50
CS(=O)(=O)c1ccc(-c2sc(-c3ccc(-c4cc(CC(=O)O)c(-c5ccc(S(C)(=O)=O)cc5)s4)cc3)cc2CC(=O)O)cc1 [Example 37, 2-(5-{4-[4-(Carboxymethyl)-5-(4-methanesulfonylphenyl)thiophen-2-yl]phenyl}-2-(4-methanesulfonylphenyl)thiophen-3-yl)acetic acid]	5.01 µM
CS(=O)(=O)c1ccc(-c2cc(CC(=O)O)c(-c3ccc(-c4sc(-c5ccc(C(=O)O)s5)cc4CC(=O)O)s3)s2)cc1 [Example 75, 5-[4-(Carboxymethyl)-5-{5-[3-(carboxymethyl)-5-(4-methanesulfonylphenyl)thiophen-2-yl]thiophen-2-yl}thiophen-2-yl]thiophene-2-carboxylic acid]	31.6 µM
CS(=O)(=O)c1ccc(-c2sc(-c3ccc(-c4cc(CC(=O)O)c(-c5ccc(S(C)(=O)=O)cc5)s4)s3)cc2CC(=O)O)cc1 [Example 36, 2-(5-{5-[4-(Carboxymethyl)-5-(4-methanesulfonylphenyl)thiophen-2-yl]thiophen-2-yl}-2-(4-methanesulfonylphenyl)thiophen-3-yl)acetic acid]	5.01 µM
COC(=O)Cc1cc(-c2ccc(C(=O)O)s2)sc1-c1ccc(-c2sc(-c3ccc(C(=O)O)s3)cc2CC(=O)OC)s1 [Example 69, 5-(5-{5-[5-(5-Carboxythiophen-2-yl)-3-(2-methoxy-2-oxoethyl)thiophen-2-yl]thiophen-2-yl}-4-(2-methoxy-2-oxoethyl)thiophen-2-yl)thiophene-2-carboxylic acid]	2.51 µM
O=C(O)Cc1cc(-c2cccc(C(=O)O)c2)sc1-c1ccc(-c2sc(-c3cccc(C(=O)O)c3)cc2CC(=O)O)s1 [Example 10, 3-[4-(Carboxymethyl)-5-{5-[3-(carboxymethyl)-5-(3-carboxyphenyl)thiophen-2-yl]thiophen-2-yl}thiophen-2-yl]benzoic acid]	7.94 µM
O=C(O)Cc1cc(-c2ccc(-c3cccc(C(=O)O)c3)s2)sc1-c1ccc(-c2sc(-c3ccc(-c4cccc(C(=O)O)c4)s3)cc2CC(=O)O)s1 [Example 20, 3-{5-[4-(Carboxymethyl)-5-{5-[3-(carboxymethyl)-5-[5-(3-carboxyphenyl)thiophen-2-yl]thiophen-2-yl]thiophen-2-yl}thiophen-2-yl]thiophen-2-yl}benzoic acid]	1 µM
CC(=O)NCCc1cc(-c2ccc(C(=O)O)s2)sc1-c1ccc(-c2sc(-c3ccc(C(=O)O)s3)cc2CCNC(C)=O)s1 [Example 7, 5-(5-{5-[5-(5-Carboxythiophen-2-yl)-3-(2-acetamidoethyl)thiophen-2-yl]thiophen-2-yl}-4-(2-acetamidoethyl)thiophen-2-yl)thiophene-2-carboxylic acid]	3.98 µM
CS(=O)(=O)c1ccc(-c2cc(CCC(=O)O)c(-c3ccc(-c4sc(-c5ccc(S(C)(=O)=O)cc5)cc4CCC(=O)O)s3)s2)cc1 [Example 51, 3-(2-{5-[3-(2-Carboxyethyl)-5-(4-methanesulfonylphenyl)thiophen-2-yl]thiophen-2-yl}-5-(4-methanesulfonylphenyl)thiophen-3-yl)propanoic acid]	1.58 µM and 7.94 µM
O=C(O)Cc1cc(-c2ccc(-c3ccccc3C(=O)O)s2)sc1-c1ccc(-c2sc(-c3ccc(-c4ccccc4C(=O)O)s3)cc2CC(=O)O)s1 [Example 43, 2-{5-[4-(Carboxymethyl)-5-{5-[3-(carboxymethyl)-5-[5-(2-carboxyphenyl)thiophen-2-yl]thiophen-2-yl]thiophen-2-yl}thiophen-2-yl]thiophen-2-yl}benzoic acid]	3.98 µM
O=C(O)Cc1cc(-c2cccc(C(=O)O)c2)sc1-c1ccc(-c2sc(-c3ccc(C(=O)O)s3)cc2CC(=O)O)s1 [Example 14, 5-[4-(Carboxymethyl)-5-{5-[3-(carboxymethyl)-5-(3-carboxyphenyl)thiophen-2-yl]thiophen-2-yl}thiophen-2-yl]thiophene-2-carboxylic acid]	2 µM
